Test results as given in paper PMC11359809, “Probing the molecular basis for signal transduction through the Zinc-Activated Channel (ZAC)” (Biochemical pharmacology, 2021).

Tests used:
ZAC^H79A/H82A/H120F = target: T1, ZAC^H79A/H82A/H120F (Homo sapiens, UniProt Q401N2, A152T/H103A/H106A/H144F); test: TEVC in oocytes, ZAC H79A/H82A/H120F mutant; assay type: cell-based; settings: parallel recordings, same oocyte batches
T1 construct: expressed in transfected cells; host or cells: Xenopus oocytes (cRNA injection, pUNIV vector)
T1 sequence (Q401N2 26-412 H103A/H106A/H144F/A152T): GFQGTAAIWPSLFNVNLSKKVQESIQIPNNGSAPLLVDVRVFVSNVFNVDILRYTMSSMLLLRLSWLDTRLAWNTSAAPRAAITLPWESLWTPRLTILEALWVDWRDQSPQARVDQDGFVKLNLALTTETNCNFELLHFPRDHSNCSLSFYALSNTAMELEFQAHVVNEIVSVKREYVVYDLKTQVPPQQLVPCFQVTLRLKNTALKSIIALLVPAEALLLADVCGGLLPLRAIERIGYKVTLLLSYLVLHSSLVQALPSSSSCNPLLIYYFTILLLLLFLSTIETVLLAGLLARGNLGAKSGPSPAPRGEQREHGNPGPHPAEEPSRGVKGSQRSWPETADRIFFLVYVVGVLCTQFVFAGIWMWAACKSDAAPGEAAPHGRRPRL
Experimental: (§1) The recordings were performed at room temperature.
(§2) Analysis of the data from the TEVC recordings were performed using Clampfit software version 10.5 (Molecular Devices, Crawley, UK) and GraphPad Prism version 7.0c (GraphPad Software, La Jolla, CA). Unless otherwise stated, the inward currents induced by agonists in oocytes were normalized to the maximal response elicited by a specific agonist (agonist Imax) on each oocyte. Concentration-response and concentration-inhibition curves were fitted in GraphPad Prism by nonlinear regression using the equation for sigmoidal dose-response with variable slope. Each data point represents the mean ± S.E.M. value of recordings performed on at least five oocytes in total from at least two different batches. […] The null hypothesis was rejected at P < 0.05, and the differences between the means were analyzed by Tukey’s multiple comparisons test.
(§3) The putative involvement of candidate residues in Clusters 1, 2, 3 and 4 in Zn^2+ binding to ZAC was investigated in by an elaborate alanine mutagenesis scanning. […] The determined IpH 4.0 value was used in part as a control and in part to enable the distinction of ZAC mutants non-responsive to Zn^2+ due to elimination of their ability to bind the metal ion from those where the mutation had eliminated cell surface expression and/or disrupted overall functionality of the receptor complex. […]

ZAC^E160A/E162A/C195A = target: T2, ZAC^E160A/E162A/C195A (Homo sapiens, UniProt Q401N2, A152T/C219A/E184A/E186A); test: TEVC in oocytes, Cluster 4 triple mutant; assay type: cell-based; settings: agonist; n = 6
T2 construct: expressed in transfected cells; host or cells: Xenopus oocytes injected with cRNA (pUNIV vector)
T2 sequence (Q401N2 26-412 A152T/E184A/E186A/C219A): as the sequence (Q401N2 26-412 H103A/H106A/H144F/A152T) above, with A78H, A81H, F119H, E159A, E161A, C194A counted along it
Experimental: as §1, §2, §3

[1] = target: T3, ZAC^E136A/H139A/D143A/H144A (Homo sapiens, UniProt Q401N2, A152T/D167A/E160A/H163A/H168A); test: TEVC in oocytes, Cluster 2 quadruple mutant; assay type: cell-based; settings: Zn^2+ 10 mM; H^+ pH 4.0; data not shown
T3 construct: expressed in transfected cells; host or cells: Xenopus oocytes injected with cRNA (pUNIV vector)
T3 sequence (Q401N2 26-412 A152T/E160A/H163A/D167A/H168A): as the sequence (Q401N2 26-412 H103A/H106A/H144F/A152T) above, with A78H, A81H, F119H, E135A, H138A, D142A, H143A counted along it
Experimental: as §1, §2, §3

ZAC^D105A/D108A = target: T4, ZAC^D105A/D108A (Homo sapiens, UniProt Q401N2, A152T/D129A/D132A); test: TEVC in oocytes, ZAC D105A/D108A mutant; assay type: cell-based; settings: 10 mM Zn^2+; data not shown
T4 construct: expressed in transfected cells; host or cells: Xenopus oocytes injected with cRNA (pUNIV vector)
T4 sequence (Q401N2 26-412 D129A/D132A/A152T): as the sequence (Q401N2 26-412 H103A/H106A/H144F/A152T) above, with A78H, A81H, D104A, D107A, F119H counted along it
Experimental: as §1, §2, §3

ZAC^D105A = target: T5, ZAC^D105A (Homo sapiens, UniProt Q401N2, A152T/D129A); test: TEVC in oocytes, ZAC D105A mutant; assay type: cell-based
T5 construct: expressed in transfected cells; host or cells: Xenopus oocytes (cRNA injection, pUNIV vector)
T5 sequence (Q401N2 26-412 D129A/A152T): as the sequence (Q401N2 26-412 H103A/H106A/H144F/A152T) above, with A78H, A81H, D104A, F119H counted along it
Experimental: as §1, §2, §3

ZAC^E89A = target: T6, ZAC^E89A (Homo sapiens, UniProt Q401N2, A152T/E113A); test: TEVC in oocytes, ZAC E89A mutant; assay type: cell-based; settings: agonist; n = 7
T6 construct: expressed in transfected cells; host or cells: Xenopus oocytes injected with cRNA (pUNIV vector)
T6 sequence (Q401N2 26-412 E113A/A152T): as the sequence (Q401N2 26-412 H103A/H106A/H144F/A152T) above, with A78H, A81H, E88A, F119H counted along it
Experimental: as §1, §2, §3

ZAC/hα1-Gly = test: TEVC in oocytes expressing ZAC/hα1-Gly chimera; assay type: cell-based, human
Experimental: as §1
(§4) Analysis of the data from the TEVC recordings were performed using Clampfit software version 10.5 (Molecular Devices, Crawley, UK) and GraphPad Prism version 7.0c (GraphPad Software, La Jolla, CA). Unless otherwise stated, the inward currents induced by agonists in oocytes were normalized to the maximal response elicited by a specific agonist (agonist Imax) on each oocyte. Concentration-response and concentration-inhibition curves were fitted in GraphPad Prism by nonlinear regression using the equation for sigmoidal dose-response with variable slope. Each data point represents the mean ± S.E.M. value of recordings performed on at least five oocytes in total from at least two different batches. For the data where statistical analysis was performed, a one-way ANOVA was used. The null hypothesis was rejected at P < 0.05, and the differences between the means were analyzed by Tukey’s multiple comparisons test.
Initially, we constructed four chimeric subunits fusing the ZAC ECD or TMD-ICD with the complementary domains from either the m5-HT3A or the hα1 GlyR subunit: ZAC/m5-HT3A, m5-HT3A/ZAC, ZAC/hα1-Gly and hα1-Gly/ZAC (Fig. 1A). […] (Fig. 1A).

ZAC/m5-HT3A-II = test: TEVC in oocytes expressing ZAC/m5-HT3A-II chimera; assay type: cell-based, mouse/human; settings: Zn^2+ 10 mM; H^+ pH 4.0; data not shown
Experimental: as §1

ZAC^L9′T = target: T7, ZAC^L9′T (Homo sapiens, UniProt Q401N2, A152T/L270T); test: TEVC in oocytes, ZAC L9′T mutant; assay type: cell-based; settings: agonist; n = 6
T7 construct: expressed in transfected cells; host or cells: Xenopus oocytes (cRNA injection, pUNIV vector)
T7 sequence (Q401N2 26-412 A152T/L270T): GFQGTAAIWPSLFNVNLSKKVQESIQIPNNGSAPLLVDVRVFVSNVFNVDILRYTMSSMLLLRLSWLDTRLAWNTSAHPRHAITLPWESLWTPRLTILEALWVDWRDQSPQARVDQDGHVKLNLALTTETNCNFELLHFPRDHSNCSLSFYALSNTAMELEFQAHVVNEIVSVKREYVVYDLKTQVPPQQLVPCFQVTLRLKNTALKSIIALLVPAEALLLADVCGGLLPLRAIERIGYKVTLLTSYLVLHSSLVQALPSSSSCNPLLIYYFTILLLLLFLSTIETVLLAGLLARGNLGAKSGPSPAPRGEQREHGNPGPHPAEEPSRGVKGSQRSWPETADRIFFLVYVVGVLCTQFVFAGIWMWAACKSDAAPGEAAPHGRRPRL
Experimental: as §1, §4

ZAC^D116A/DH8A/H210A = target: T8, ZAC^D116A/DH8A/H210A (Homo sapiens, UniProt Q401N2, A152T/D140A/D142A/H144A); test: TEVC in oocytes, Cluster 1 triple mutant; assay type: cell-based; settings: 10 mM Zn^2+
T8 construct: expressed in transfected cells; host or cells: Xenopus oocytes injected with cRNA (pUNIV vector)
T8 sequence (Q401N2 26-412 D140A/D142A/H144A/A152T): as the sequence (Q401N2 26-412 H103A/H106A/H144F/A152T) above, with A78H, A81H, D115A, D117A, F119A counted along it
Experimental: as §1, §2, §3

ZAC^H144A = target: T9, ZAC^H144A (Homo sapiens, UniProt Q401N2, A152T/H168A); test: TEVC in oocytes, ZAC H144A mutant; assay type: cell-based
T9 construct: expressed in transfected cells; host or cells: Xenopus oocytes injected with cRNA (pUNIV vector)
T9 sequence (Q401N2 26-412 A152T/H168A): as the sequence (Q401N2 26-412 H103A/H106A/H144F/A152T) above, with A78H, A81H, F119H, H143A counted along it
Experimental: as §1, §2, §3

ZAC^D118A = target: T10, ZAC^D118A (Homo sapiens, UniProt Q401N2, A152T/D142A); test: TEVC in oocytes, ZAC D118A mutant; assay type: cell-based
T10 construct: expressed in transfected cells; host or cells: Xenopus oocytes injected with cRNA (pUNIV vector)
T10 sequence (Q401N2 26-412 D142A/A152T): as the sequence (Q401N2 26-412 H103A/H106A/H144F/A152T) above, with A78H, A81H, D117A, F119H counted along it
Experimental: as §1, §2, §3

ZAC^H166A = target: T11, ZAC^H166A (Homo sapiens, UniProt Q401N2, A152T/H190A); test: TEVC in oocytes, ZAC H166A mutant; assay type: cell-based
T11 construct: expressed in transfected cells; host or cells: Xenopus oocytes injected with cRNA (pUNIV vector)
T11 sequence (Q401N2 26-412 A152T/H190A): as the sequence (Q401N2 26-412 H103A/H106A/H144F/A152T) above, with A78H, A81H, F119H, H165A counted along it
Experimental: as §1, §2, §3

ZAC^D108A = target: T12, ZAC^D108A (Homo sapiens, UniProt Q401N2, A152T/D132A); test: TEVC in oocytes, ZAC D108A mutant; assay type: cell-based
T12 construct: expressed in transfected cells; host or cells: Xenopus oocytes (cRNA injection, pUNIV vector)
T12 sequence (Q401N2 26-412 D132A/A152T): as the sequence (Q401N2 26-412 H103A/H106A/H144F/A152T) above, with A78H, A81H, D107A, F119H counted along it
Experimental: as §1, §2, §3

ZAC^H82A/H120F = target: T13, ZAC^H82A/H120F (Homo sapiens, UniProt Q401N2, A152T/H106A/H144F); test: TEVC in oocytes, ZAC H82A/H120F mutant; assay type: cell-based; settings: parallel recordings, same oocyte batches
T13 construct: expressed in transfected cells; host or cells: Xenopus oocytes (cRNA injection, pUNIV vector)
T13 sequence (Q401N2 26-412 H106A/H144F/A152T): as the sequence (Q401N2 26-412 H103A/H106A/H144F/A152T) above, with A78H counted along it
Experimental: as §1, §2, §3

ZAC^H120L = test: TEVC in oocytes, ZAC H120L mutant; assay type: cell-based, human; settings: agonist
Experimental: as §1, §2, §3

ZAC^H139A = target: T14, ZAC^H139A (Homo sapiens, UniProt Q401N2, A152T/H163A); test: TEVC in oocytes, ZAC H139A mutant; assay type: cell-based
T14 construct: expressed in transfected cells; host or cells: Xenopus oocytes injected with cRNA (pUNIV vector)
T14 sequence (Q401N2 26-412 A152T/H163A): as the sequence (Q401N2 26-412 H103A/H106A/H144F/A152T) above, with A78H, A81H, F119H, H138A counted along it
Experimental: as §1, §2, §3

ZAC^H120F = test: TEVC in oocytes, ZAC H120F mutant; assay type: cell-based, human; settings: agonist
Experimental: as §1, §2, §3

ZAC^H79A/H120F = target: T15, ZAC^H79A/H120F (Homo sapiens, UniProt Q401N2, A152T/H103A/H144F); test: TEVC in oocytes, ZAC H79A/H120F mutant; assay type: cell-based; settings: parallel recordings, same oocyte batches
T15 construct: expressed in transfected cells; host or cells: Xenopus oocytes (cRNA injection, pUNIV vector)
T15 sequence (Q401N2 26-412 H103A/H144F/A152T): as the sequence (Q401N2 26-412 H103A/H106A/H144F/A152T) above, with A81H counted along it
Experimental: as §1, §2, §3

[2] = sustained (4 min) application of 30 μM Zn^2+

SMILES: [Cl-].[Cl-].[Zn+2] [Zn^2+, ZnCl2]
- ability to elicit ZAC signalling compared to WT ZAC (ZAC^H79A/H82A/H120F): did not appear to impair
- EC50 (ZAC^E160A/E162A/C195A): 180 µM
- pEC50 ± S.E.M. (ZAC^E160A/E162A/C195A): 3.75 ± 0.05
- agonist responsiveness [1]: non-responsive
- agonist responsiveness (ZAC^D105A/D108A): non-responsive
- concentration-response relationship compared to WT ZAC (ZAC^D105A): did not differ significantly
- EC50 (ZAC^E89A): 160 µM
- pEC50 ± S.E.M. (ZAC^E89A): 3.79 ± 0.07
- Imax (current amplitude evoked by saturating agonist) (ZAC/hα1-Gly; 30 μM Zn^2+, n = 11): 0.24 ± 0.03 μA
- nH ± S.E.M. (Hill slope) (ZAC/hα1-Gly; agonist, n = 10): 1.6 ± 0.4
- pEC50 ± S.E.M. (ZAC/hα1-Gly; agonist, n = 10): 5.36 ± 0.09
- left-shift of concentration-response relationship (higher agonist potency) (ZAC/hα1-Gly; compared to WT ZAC): ~100 fold
- Iresidual, 4 min (ZAC/hα1-Gly; [2]): 63 ± 6 % of Ipeak
- Δtpeak-to-plateau (ZAC/hα1-Gly; [2]): 56 ± 3.8 s
- Δtstart-to-peak (ZAC/hα1-Gly; [2]): 10 ± 1.9 s
- agonist-evoked current (ZAC/m5-HT3A-II): did not evoke significant currents
- EC50 (ZAC^L9′T): 66 µM
- nH ± S.E.M. (Hill slope) (ZAC^L9′T): 0.7 ± 0.4
- pEC50 ± S.E.M. (ZAC^L9′T): 4.18 ± 0.34
- I10 mM Zn2+ range (ZAC^D116A/DH8A/H210A): 10–30 nA
- functional properties as agonist compared to WT ZAC (ZAC^H144A): not altered significantly
- agonist properties compared to WT ZAC (ZAC^D118A): did not differ substantially
- agonist properties compared to WT ZAC (ZAC^H166A): WT-like agonist properties
- concentration-response relationship compared to WT ZAC (ZAC^D108A): did not differ significantly
- ability to elicit ZAC signalling compared to WT ZAC (ZAC^H82A/H120F): did not appear to impair
- fitted EC50 relative to WT ZAC (higher) (ZAC^H120L): ~ 3 fold
- functional properties as agonist compared to WT ZAC (ZAC^H139A): not altered significantly
- fitted EC50 relative to WT ZAC (higher) (ZAC^H120F): ~ 3 fold
- ability to elicit ZAC signalling compared to WT ZAC (ZAC^H79A/H120F): did not appear to impair
